Laboratory results from PubChem BioAssay (NCI).
Values joined by “and” are separate entries in the source; they are usually repeats but may differ in a detail not shown here. Identical values can stand only once.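 Interpolation was linear, between the two tested concentrations surrounding the appropriate level; five concentrations were tested over 48 hours in 96-well plates. The concentration for 50% growth inhibition is given as GI50. TGI marks complete inhibition of growth.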

Experiments:
Assay in all cases: DTP human tumour cell line panel, 48 h
A549 NSCLC = tested on: A549 NSCLC
COLO 205 colon = tested on: COLO 205 colon
HT29 colon = tested on: HT29 colon
K-562 leukemia = tested on: K-562 leukemia
KM12 colon = tested on: KM12 colon
LOX IMVI melanoma = tested on: LOX IMVI melanoma
NCI-H23 lung = tested on: NCI-H23 lung
OVCAR-3 ovarian = tested on: OVCAR-3 ovarian
OVCAR-4 ovarian = tested on: OVCAR-4 ovarian
UACC-257 melanoma = tested on: UACC-257 melanoma

Structure (SMILES): COC(=O)C1=CSC2(S1)C(C(=O)OC)=CSc1c2ssc1=Nc1ccccc1 (configuration not stated)
- TGI (A549 NSCLC): 14.6 µM
- TGI (COLO 205 colon): 4.37 µM
- TGI (HT29 colon): 5.85 µM
- TGI (K-562 leukemia): 7.38 µM
- TGI (KM12 colon): 10.1 µM
- TGI (LOX IMVI melanoma): 4.1 µM
- TGI (NCI-H23 lung): 8.43 µM
- TGI (OVCAR-3 ovarian): > 100 µM
- TGI (OVCAR-4 ovarian): 8.06 µM
- TGI (UACC-257 melanoma): 7.26 µM

Structure (SMILES): CC(=O)C(O)N1C(=O)C=CC1=O (configuration not stated)
- TGI (A549 NSCLC): 16.4 µM and 35.9 µM
- TGI (KM12 colon): 25 µM and 31.2 µM and 34.7 µM
- GI50 (OVCAR-3 ovarian): 11600 µM

Structure (SMILES): CCCCCCNC(=O)c1cnc(Cl)cn1
- TGI (A549 NSCLC): 42.3 µM
- TGI (COLO 205 colon): 40 µM
- TGI (HT29 colon): > 100 µM
- TGI (K-562 leukemia): 40.2 µM
- TGI (KM12 colon): 29.3 µM
- TGI (LOX IMVI melanoma): 27.7 µM
- TGI (NCI-H23 lung): 23.5 µM
- TGI (OVCAR-4 ovarian): 47.9 µM
- TGI (UACC-257 melanoma): 37.4 µM

Structure (SMILES): COc1ccc(N2C(=O)C3c4[nH]c5c(C)cccc5c4C4CCC(C(C)(C)C)CC4C3C2=O)cc1 (configuration not stated)
- TGI (A549 NSCLC): > 10 µM
- TGI (COLO 205 colon): > 10 µM
- TGI (HT29 colon): 5.86 µM
- TGI (K-562 leukemia): > 10 µM
- TGI (KM12 colon): > 10 µM
- TGI (LOX IMVI melanoma): 4.17 µM
- TGI (NCI-H23 lung): > 10 µM
- TGI (OVCAR-3 ovarian): > 10 µM
- TGI (OVCAR-4 ovarian): > 10 µM

Structure (SMILES): NC(=O)CCCC(NCc1c2ccccc2nc2ccccc12)C(=O)O (configuration not stated)
- TGI (A549 NSCLC): > 100 µM
- TGI (COLO 205 colon): > 100 µM
- TGI (HT29 colon): > 100 µM
- TGI (K-562 leukemia): > 100 µM
- TGI (KM12 colon): > 100 µM
- TGI (LOX IMVI melanoma): > 100 µM
- TGI (NCI-H23 lung): > 100 µM
- TGI (OVCAR-3 ovarian): > 100 µM
- TGI (OVCAR-4 ovarian): 41.7 µM
- TGI (UACC-257 melanoma): > 100 µM

Structure (SMILES): COc1ccc([C@@H]2ON(C)[C@H]3CN(C)C(=O)[C@@H]23)cc1
- TGI (A549 NSCLC): > 100 µM
- TGI (COLO 205 colon): > 100 µM
- TGI (HT29 colon): > 100 µM
- TGI (K-562 leukemia): > 100 µM
- TGI (LOX IMVI melanoma): > 100 µM
- TGI (NCI-H23 lung): > 100 µM
- TGI (OVCAR-3 ovarian): > 100 µM
- TGI (OVCAR-4 ovarian): > 100 µM
- TGI (UACC-257 melanoma): > 100 µM

Structure (SMILES): CN1CCCCC1CCN1CCCCC1 (configuration not stated)
- TGI (A549 NSCLC): > 100 µM
- TGI (COLO 205 colon): > 100 µM
- TGI (HT29 colon): > 100 µM
- TGI (K-562 leukemia): > 100 µM
- TGI (KM12 colon): > 100 µM
- TGI (LOX IMVI melanoma): > 100 µM
- TGI (NCI-H23 lung): > 100 µM
- TGI (OVCAR-3 ovarian): > 100 µM
- TGI (OVCAR-4 ovarian): > 100 µM
- TGI (UACC-257 melanoma): > 100 µM

Structure (SMILES): Cc1ccccc1N=Nc1ccc(N=Nc2c(O)ccc3ccccc23)c(C)c1
- TGI (A549 NSCLC): > 100 µM
- TGI (COLO 205 colon): > 100 µM
- TGI (HT29 colon): > 100 µM
- TGI (K-562 leukemia): > 100 µM
- TGI (KM12 colon): > 100 µM
- TGI (LOX IMVI melanoma): > 100 µM
- TGI (NCI-H23 lung): > 100 µM
- TGI (OVCAR-3 ovarian): > 100 µM
- TGI (OVCAR-4 ovarian): > 100 µM
- TGI (UACC-257 melanoma): > 100 µM

Structure (SMILES): CCCCCCCSc1nc2c(C(=O)OCC)ncn2c2ccccc12
- TGI (COLO 205 colon): > 100 µM
- TGI (HT29 colon): > 100 µM
- TGI (K-562 leukemia): > 100 µM
- TGI (KM12 colon): > 100 µM
- TGI (LOX IMVI melanoma): > 100 µM
- TGI (NCI-H23 lung): > 100 µM
- TGI (OVCAR-3 ovarian): > 100 µM
- TGI (UACC-257 melanoma): > 100 µM

Structure (SMILES): CC1C(O)C2(Oc3cc4c(c5c3[C@@H](CC5O)[C@H]2C)CCC2Cc3nc5c(nc3C[C@@]42C)CC2CCC3C4=C[C@H]6O[C@@]7(O[C@@](C)(CO)C[C@@H]7O)C(C)[C@@]6(O)[C@]4(C)[C@@H](O)CC3[C@]2(C)C5)OC1(C)C (some centres not stated)
- TGI (A549 NSCLC): 0.841 µM
- TGI (COLO 205 colon): 0.609 µM
- TGI (HT29 colon): 0.456 µM
- TGI (K-562 leukemia): 0.367 µM
- TGI (KM12 colon): > 3.67 µM
- TGI (LOX IMVI melanoma): 0.892 µM
- TGI (NCI-H23 lung): 0.654 µM
- TGI (OVCAR-3 ovarian): 0.406 µM
- TGI (OVCAR-4 ovarian): > 3.67 µM
- TGI (UACC-257 melanoma): > 3.67 µM

Structure (SMILES): Cc1cc(NCc2cc(Nc3ccnc4cc(Cl)ccc34)ccc2F)nc(N2CCCC2)n1
- GI50 (A549 NSCLC): 2.22 µM
- TGI (A549 NSCLC): 6.02 µM
- GI50 (HT29 colon): 0.877 µM
- TGI (HT29 colon): 2.27 µM
- GI50 (KM12 colon): 1.97 µM
- TGI (KM12 colon): 4.53 µM
- GI50 (NCI-H23 lung): 1.83 µM
- TGI (NCI-H23 lung): 4.68 µM
- GI50 (OVCAR-3 ovarian): 1.63 µM
- TGI (OVCAR-3 ovarian): 3.22 µM
- GI50 (OVCAR-4 ovarian): 1.27 µM
- TGI (OVCAR-4 ovarian): 4.54 µM
- GI50 (UACC-257 melanoma): 1.87 µM
- TGI (UACC-257 melanoma): 3.53 µM

Structure (SMILES): O=C1c2c(c3c4ccccc4[nH]c3c3ccc4ccccc4c23)C(=O)N1CCN1CCCCC1
- GI50 (A549 NSCLC): 3.1 µM
- TGI (A549 NSCLC): > 100 µM
- GI50 (COLO 205 colon): 1.38 µM
- TGI (COLO 205 colon): 8.28 µM
- GI50 (HT29 colon): 1.72 µM
- TGI (HT29 colon): 10.6 µM
- GI50 (K-562 leukemia): 1.33 µM
- TGI (K-562 leukemia): 6.34 µM
- GI50 (KM12 colon): 3.05 µM
- TGI (KM12 colon): 25.5 µM
- GI50 (LOX IMVI melanoma): 0.894 µM
- TGI (LOX IMVI melanoma): 2.33 µM
- GI50 (NCI-H23 lung): 0.741 µM
- TGI (NCI-H23 lung): 9.79 µM
- GI50 (OVCAR-3 ovarian): 1.99 µM
- TGI (OVCAR-3 ovarian): 5.04 µM
- GI50 (OVCAR-4 ovarian): 2.03 µM
- TGI (OVCAR-4 ovarian): 5.74 µM
- GI50 (UACC-257 melanoma): 1.87 µM
- TGI (UACC-257 melanoma): 4.23 µM

Structure (SMILES): Cc1ccc(S(=O)(=O)NCCSCCNS(=O)(=O)c2ccc(C)cc2)cc1
- TGI (A549 NSCLC): > 100 µM
- TGI (COLO 205 colon): > 100 µM
- TGI (HT29 colon): > 100 µM
- TGI (K-562 leukemia): > 100 µM
- TGI (KM12 colon): > 100 µM
- TGI (LOX IMVI melanoma): > 100 µM
- TGI (NCI-H23 lung): > 100 µM
- TGI (OVCAR-3 ovarian): > 100 µM
- TGI (OVCAR-4 ovarian): > 100 µM
- TGI (UACC-257 melanoma): > 100 µM
